According to US5532240A, “Condensed thiophene compound and pharmaceutical use thereof” (Yoshitomi Pharmaceutical Industries, Ltd., priority 1991, dated 1996):

Experiments:
[1] = system: catalepsy induced by haloperidol; settings: preclinical; cited from earlier work
[2] = system: conditioned avoidance response (CAR); settings: administered with D2 antagonist; cited from earlier work
[3] = biological target: T1, serotonin 1A (5-HT1A) receptor (Rattus norvegicus, UniProt P19327); assay: Affinity for serotonin 1A receptor (tritiated 8-OH-DPAT binding); set-up: species or system Wistar rats; settings: rat hippocampus crude synaptosomes; [3H]8-OH-DPAT 0.2 nM; 37° C., 12 min
T1 construct: A crude synaptosome fraction was separated from hippocampus; from tissue; host or cells: hippocampus of 9-10 week-old Wistar rats, crude synaptosome fraction
T1 sequence (P19327 1-422): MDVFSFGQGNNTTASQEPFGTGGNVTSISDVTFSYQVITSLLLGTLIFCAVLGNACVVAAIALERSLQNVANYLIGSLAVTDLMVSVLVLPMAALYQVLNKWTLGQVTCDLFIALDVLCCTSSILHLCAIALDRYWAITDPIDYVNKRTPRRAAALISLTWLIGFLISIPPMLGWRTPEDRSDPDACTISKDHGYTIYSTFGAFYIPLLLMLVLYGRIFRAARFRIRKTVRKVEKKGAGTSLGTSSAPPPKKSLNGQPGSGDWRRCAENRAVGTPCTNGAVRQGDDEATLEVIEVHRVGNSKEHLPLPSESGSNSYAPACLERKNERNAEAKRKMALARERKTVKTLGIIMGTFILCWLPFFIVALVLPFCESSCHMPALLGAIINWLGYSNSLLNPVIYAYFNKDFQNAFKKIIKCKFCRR
Protocol: Affinity for serotonin 1A receptor
A specific binding of serotonin 1A (5-HT1A) receptor was tested according to the method described in J. Neurochem. 44, 1685 (1985).
(§1) A crude synaptosome fraction was separated from hippocampus of 9-10 week-old Wistar rats, and suspended in 50 mM Tris-HCl buffer (pH 7.4) containing 1 mM manganese chloride for the experiment. The test compound at several concentrations and tritiated 8-hydroxy-2-dipropyl-aminotetralin(8-OH-DPAT, final concentration 0.2 nM) were added to the synaptosome suspension, and each mixture was incubated at 37° C. for 12 minutes. After the incubation, the mixture was filtered with suction through Whatman GF/B (trade mark) glass filter. The filter was washed with 50 mM Tris-HCl buffer (pH 7.7), and the radioactivity of the filter was measured by a liquid scintillation counter. Non-specific binding was determined in the presence of 10^-5 M serotonin (5-HT). The concentration necessary for 50% inhibition (IC50) was determined on a graph, and inhibition constant (Ki value) was calculated.

[4] = system: apomorphine-induced hyperactivity; assay: Anti-apomorphine action (in mouse); assay type: in vivo, male dd mice; settings: oral, 60 min before 0.5 mg/kg s.c. apomorphine hydrochloride, movement lowered by 50%
Protocol: Anti-apomorphine action (in mouse)
Male dd mice at 3 per group were used for the experiment. The test compound was orally administered to the mice, and 60 minutes later, 0.5 mg/kg of apomorphine hydrochloride was subcutaneously administered. the movement for 20 minutes from immediately after the administration of apomorphine hydrochloride was measured using Valimex (Columbus, USA). Each group was tested four times, and the amount of the test compound necessary to lower the movement by 50% than that of a control group was calculated from a graph and taken as ED50.

dopamine 2 (D2) receptor = biological target: T2, dopamine 2 (D2) receptor (Rattus norvegicus, UniProt P61169); assay: Affinity for dopamine 2 receptor (tritiated spiperone binding); set-up: species or system Wistar rats; settings: rat corpus striatum synaptosomes; [3H]spiperone 0.2 nM; 37° C., 20 min
T2 construct: A synaptosome fraction was separated from corpus striatum; from tissue; host or cells: corpus striatum of 9-10 week-old Wistar rats, synaptosome fraction
Protocol: Affinity for dopamine 2 receptor
A specific binding of dopamine 2 (D2) receptor was tested according to the method described in Eur. J. Pharmacol. 46, 377 (1977).
A synaptosome fraction was separated from corpus striatum of 9-10 week-old Wistar rats, and suspended in 50 mM Tris-HCl buffer (pH 7.1) containing 120 mM sodium chloride, 5 mM potassium chloride, 2 mM calcium chloride, 1 mM magnesium chloride, 10 μM pargyline and 0.1% ascorbic acid for the experiment.
as §1, with “The” for “A crude synaptosome fraction was separated from hippocampus of 9-10 week-old Wistar rats, and suspended in 50 mM Tris-HCl buffer (pH 7.4) containing 1 mM manganese chloride for the experiment. The”, “spiperone (final” for “8-hydroxy-2-dipropyl-aminotetralin(8-OH-DPAT, final”, “20” for “12”, “10^-4” for “10^-5”, “(±)-sulpiride.” for “serotonin (5-HT).”

[5] = system: ergometrine-induced head-twitches; assay: Anti-ergometrine action (head-twitch); assay type: in vivo, male ddY mice; settings: Mus musculus; oral, 60 min before 20 mg/kg i.p. ergometrine maleate; head-twitch vanished, Probit
Protocol: Male ddY mice at 12 per group were used for the experiment. The test compound was orally administered to the mice, and 60 minutes later, 20 mg/kg of ergometrine maleate was intraperitoneally administered. The amount of the test compound necessary to vanish the head-twitch reaction for 10 minutes from immediately after the administration of ergometrine maleate was calculated as ED50 value by Probit method.

Acute toxicity = settings: mouse, in vivo; oral, male ddY mice, observed 5 days; read-out: LD50 (50% lethal dose)
Source text: Male ddY mice weighing 20-28 g were used at 10 per group. They were orally administered with the compound of Example 24 and observed for 5 days after the administration.

[6] = biological target: T3, serotonin 2 (5-HT2) receptor (Rattus norvegicus, UniProt P14842); assay: Affinity for serotonin 2 receptor (tritiated ketanserin binding); set-up: species or system Wistar rats; settings: rat hippocampus crude synaptosomes; [3H]ketanserin 0.2 nM; 37° C., 20 min
T3 construct: A crude synaptosome fraction was separated from hippocampus; from tissue; host or cells: hippocampus of 9-10 week-old Wistar rats, crude synaptosome fraction
Protocol: Affinity for serotonin 2 receptor
A specific binding of serotonin 2 (5-HT2) receptor was tested according to the method described in Mol. Pharmacol. 21, 301 (1981).
as §1, with “7.7)” for “7.4) containing 1 mM manganese chloride”, “concentration” for “concentrations”, “ketanserin (final” for “8-hydroxy-2-dipropyl-aminotetralin(8-OH-DPAT, final”, “20” for “12”, “mianserin.” for “serotonin (5-HT).”, “value )” for “value)”

T2 sequence (P61169 whole entry): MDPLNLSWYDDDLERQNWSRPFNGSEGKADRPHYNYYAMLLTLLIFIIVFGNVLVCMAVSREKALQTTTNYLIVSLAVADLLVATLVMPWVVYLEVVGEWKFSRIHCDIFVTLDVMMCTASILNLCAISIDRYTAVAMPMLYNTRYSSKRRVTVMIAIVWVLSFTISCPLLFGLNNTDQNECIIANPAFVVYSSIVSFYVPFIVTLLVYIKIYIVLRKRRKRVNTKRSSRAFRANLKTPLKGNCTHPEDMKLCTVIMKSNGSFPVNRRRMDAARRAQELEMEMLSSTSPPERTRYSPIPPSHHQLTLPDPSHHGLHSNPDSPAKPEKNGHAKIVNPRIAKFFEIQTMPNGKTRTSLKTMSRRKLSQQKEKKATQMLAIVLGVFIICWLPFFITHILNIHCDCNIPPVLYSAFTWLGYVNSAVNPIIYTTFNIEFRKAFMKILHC
T3 sequence (P14842 whole entry): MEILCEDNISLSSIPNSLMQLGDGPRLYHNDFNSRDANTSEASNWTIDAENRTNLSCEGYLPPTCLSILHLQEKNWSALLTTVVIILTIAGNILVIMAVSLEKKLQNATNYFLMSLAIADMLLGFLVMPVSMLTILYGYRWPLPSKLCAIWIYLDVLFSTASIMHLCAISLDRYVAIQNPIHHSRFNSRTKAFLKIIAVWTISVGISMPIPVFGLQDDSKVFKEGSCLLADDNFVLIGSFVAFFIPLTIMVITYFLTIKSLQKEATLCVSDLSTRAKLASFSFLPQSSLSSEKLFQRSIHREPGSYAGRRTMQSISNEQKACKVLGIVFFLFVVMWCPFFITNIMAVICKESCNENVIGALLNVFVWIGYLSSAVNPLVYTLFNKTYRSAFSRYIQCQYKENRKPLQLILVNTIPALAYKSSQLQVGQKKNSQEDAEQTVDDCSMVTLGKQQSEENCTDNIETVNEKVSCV

For `CCCN(CCC)C1CCc2cccc(O)c2C1` (centres unmarked) [8-OH DPAT, 8-hydroxy-2-dipropyl-aminotetralin], the “effect on catalepsy induced by haloperidol” value [1] is listed as “reverse catalepsy induced by haloperidol” and the “inhibition of conditioned avoidance response (CAR)” value [2] is listed as “inhibit conditioned avoidance response (CAR) more potent than that of D2 antagonist only”.

In the case of `CC(=O)N1CCc2c(sc(C)c2CCN2CCC(c3noc4cc(F)ccc34)CC2)C1` [Example 24, 6-acetyl-3-(2-(4-(6-fluoro-1,2-benzisoxazol-3-yl)piperidin-1-yl)ethyl)-4,5,6,7-tetrahydro-2-methylthieno[2,3-c]pyridine], the Ki [3] is reported as 32 nM, the ED50 [4] is reported as 0.39 mg/kg and the Ki (dopamine 2 (D2) receptor) is reported as 0.46 nM. The ED50 [5] was 0.37 mg/kg, the LD50 at 120 h (Acute toxicity) was 205 mg/kg and the Ki [6] was 0.062 nM.
